Experimental findings from ChEMBL document CHEMBL5380860, “Design, Synthesis, and Antitumor Activity of Potent and Selective EGFR L858R/T790M Inhibitors and Identification of a Combination Therapy to Overcome Acquired Resistance in Models of Non-small-cell Lung Cancer” (J Med Chem, 2023) are described below.

The species named for data set [1] is Mus musculus. The settings on record: BALB/c, dose 10.0 mg/kg/day, route po.
The species named for data set [2] is Mus musculus. The settings on record: BALB/c, dose 10.0 mg/kg/day, route po. This is another data set of the same source.
The subject of data set [3] is Epidermal growth factor receptor (Homo sapiens), P00533 [UNDEFINED MUTATION]. In words: Inhibition of human EGFR exon del19 mutant assessed as residual activity at 1 uM by KINOMEscan analysis.
The subject of data set [4] is NCI-H1975. In words: Antiproliferative activity against N-(3-((6-Fluoro-2-((4-(4-methylpiperazin-1-yl)phenyl)amino)quinazolin-4-yl)amino)phenyl)acrylamide-resistant human NCI-H1975 cells assessed as reduction in cell viability at compound:AIM100 concentration ratio of 3:1 to 1:3 measured after 72 hrs in presence of ACK1 inhibitor, AIM100 by MTT assay. In kind it is functional, cell-based.

In data set [5] the target is T1, Tyrosine-protein kinase Tec (Homo sapiens) (UniProt P42680).
T1 sequence (whole entry): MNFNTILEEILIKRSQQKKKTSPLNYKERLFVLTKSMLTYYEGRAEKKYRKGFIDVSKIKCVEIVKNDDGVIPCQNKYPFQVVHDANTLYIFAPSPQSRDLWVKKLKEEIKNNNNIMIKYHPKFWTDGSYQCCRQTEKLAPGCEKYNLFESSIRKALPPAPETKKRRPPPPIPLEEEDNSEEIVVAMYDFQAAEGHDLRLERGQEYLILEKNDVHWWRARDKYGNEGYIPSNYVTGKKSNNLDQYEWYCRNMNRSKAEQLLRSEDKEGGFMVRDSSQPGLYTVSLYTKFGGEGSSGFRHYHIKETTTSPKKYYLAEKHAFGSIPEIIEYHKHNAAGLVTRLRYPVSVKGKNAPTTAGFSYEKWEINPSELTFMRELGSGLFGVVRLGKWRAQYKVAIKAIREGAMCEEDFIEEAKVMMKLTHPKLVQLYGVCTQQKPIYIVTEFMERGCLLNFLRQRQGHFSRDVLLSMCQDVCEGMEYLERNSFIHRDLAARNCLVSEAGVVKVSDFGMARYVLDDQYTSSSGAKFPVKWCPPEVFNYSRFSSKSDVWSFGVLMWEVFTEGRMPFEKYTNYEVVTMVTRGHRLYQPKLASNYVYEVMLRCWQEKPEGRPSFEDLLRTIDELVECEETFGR
In words: Inhibition of human wild type partial length TEC kinase (L341 to D620 residues) expressed in bacterial expression system assessed as residual activity at 1 uM by KINOMEscan analysis.

Data set [6] has as its system Epidermal growth factor receptor (Homo sapiens), P00533 [L858R,T790M]. Description: Inhibition of EGFR L858R/T790M mutant in N-(3-((6-Fluoro-2-((4-(4-methylpiperazin-1-yl)phenyl)amino)quinazolin-4-yl)amino)phenyl)acrylamide-resistant human NCI-H1975 cells assessed as inhibition of EGF-induced AKT phosphorylation at Ser473 residue pretreated with compound and ACK1 inhibitor, AIM-100 for 4 hrs followed by incubation with EGF for 10 mins by western blot analysis. In kind it is cell-based. The settings on record: time 250.0 min. A general note: In western blotting, separated proteins are transferred to a membrane and probed.

A short description of data set [7]: Toxicity in BALB/c mouse xenografted with human NCI-H1975 cells assessed as change in kidney morphological changes at 5 to 20 mg/kg/day, ip by hematoxylin-eosin staining based analysis. In kind it is organism-based. The note with it: in vivo, dose 5-20 mg/kg/day. On the technique in general: A xenograft is tissue or cells of one species grown in another, often human tumour cells in immunodeficient mice.

The subject of data set [8] is NCI-H1975. Description: Antitumor activity against human NCI-H1975 cells xenografted in BALB/c mouse assessed as decrease in Ki-67 expression in tumor at 5 to 20 mg/kg/day, ip by immunohistochemistry. The class given is functional, organism-based. The note with it: dose 5-20 mg/kg/day.
In data set [9] the test system is Epidermal growth factor receptor (Homo sapiens), P00533 [L858R,T790M]. Description: Covalent binding affinity to EGFR L858R/T790M mutant (unknown origin) assessed as covalent adduct formation at Cys797 residue at protein to compound concentration ratio of 1:4 incubated for 1 hr and measured following enzymatic hydrolysis by LC-MS analysis.
Data set [10] in a line: Toxicity in BALB/c mouse xenografted with N-(3-((6-Fluoro-2-((4-(4-methylpiperazin-1-yl)phenyl)amino)quinazolin-4-yl)amino)phenyl)acrylamide-resistant human NCI-H1975 cells assessed as changes in heart morphological changes at 20 mg/kg/day, ip in presence of ACK1 inhibitor, dasatinib by hematoxylin-eosin staining based analysis. In kind it is organism-based. The settings on record: in vivo.

Data set [11] has as its system A-431. Description: Induction of apoptosis in human A-431 cells assessed as increase in caspase-3/7 activity at 0.1 to 10 uM incubated for 24 hrs by Caspase-Glo reagent based luminescence analysis. The class given is toxicity, cell-based. The note with it: a-431, 24 h, dose 0.1-10 µM.
Data set [12] addresses T2, Epidermal growth factor receptor (Homo sapiens, UniProt P00533). In words: Inhibition of wild type EGFR in human A-431 cells assessed as inhibition of EGF-induced EGFR phosphorylation at Tyr1068 residue at 0.1 to 10 uM pretreated with compound for 4 hrs followed by incubation with EGF for 10 mins by western blot analysis. In kind it is toxicity, cell-based. The settings on record: a-431, 4.167 h, dose 0.1-10 µM, time 250 min.

Data set [13] relates to Mus musculus. In words: In vivo inhibition of EGFR L858R/T790M mutant in NCI-H1975 cells xenografted BALB/c mouse assessed as inhibition of EGFR phosphorylation at Tyr1068 residue at 5 to 20 mg/kg/day, ip in tumor by immunohistochemistry. In kind it is functional, organism-based. The note with it: dose 5-20 mg/kg/day.
Data set [14] deals with T2, Epidermal growth factor receptor. In words: Inhibition of wild type EGFR in human A-431 cells assessed as inhibition of EGF-induced Akt phosphorylation at Ser473 residue at 0.1 to 10 uM pretreated with compound for 4 hrs followed by incubation with EGF for 10 mins by western blot analysis. In kind it is toxicity, cell-based. The note with it: a-431, 4.167 h, dose 0.1-10 µM, time 250 min.

In data set [15] the test system is NCI-H1975. In words: Antitumor activity against human NCI-H1975 cells xenografted in BALB/c mouse assessed as tumor regression at 5 to 10 mg/kg/day, ip. In kind it is functional, organism-based. The note with it: dose 5-10 mg/kg/day.
In data set [16] the test system is Epidermal growth factor receptor (Homo sapiens), P00533 [L858R,T790M]. Description: Inhibition of EGFR L858R/T790M mutant in N-(3-((6-Fluoro-2-((4-(4-methylpiperazin-1-yl)phenyl)amino)quinazolin-4-yl)amino)phenyl)acrylamide-resistant human NCI-H1975 cells assessed as inhibition of EGF-induced Akt phosphorylation at Ser473 residue pretreated with compound for 4 hrs followed by incubation with EGF for 10 mins by western blot analysis. In kind it is cell-based. The note with it: time 250.0 min.

The test system of data set [17] is A-431. In words: Inhibition of clonogenicity in human A-431 cells assessed as inhibition of colony formation at 0.1 to 10 uM incubated for 14 days by crystal violet staining based analysis. The settings on record: a-431, 336 h, dose 0.1-10 µM, time 14 day. In kind it is toxicity, cell-based.
The nature of data set [18]: Toxicity in BALB/c mouse xenografted with human NCI-H1975 cells assessed as effect on body weight at 5 to 20 mg/kg/day, ip. The class given is organism-based. The note with it: in vivo, dose 5-20 mg/kg/day.
Data set [19] concerns the target T3, Tyrosine-protein kinase Tec (Homo sapiens, UniProt P42680).
T3 sequence (P42680 whole entry): T1 sequence (whole entry)
In words: Inhibition of human wild type partial length TEC kinase (L341 to D620 residues) expressed in bacterial expression system by KINOMEscan analysis.

The target in data set [20] is T2, Epidermal growth factor receptor. Description: Inhibition of wild type EGFR in human A549 cells assessed as inhibition of EGF-induced ERK-1/2 phosphorylation at 10 uM pretreated with compound for 4 hrs followed by incubation with EGF for 10 mins by western blot analysis. The class given is toxicity, cell-based. The note with it: a549, 4.167 h, time 250 min.
Data set [21] in a line: AUC (0 to t) in Sprague-Dawley rat at 1 mg/kg, iv by LC-MS analysis. In kind it is ADME, organism-based. On the set-up: dose 1 mg/kg, route iv. The note with it: in vivo.

Each structure is given as a SMILES string. Calls of active or inactive are those of the source. The calls are words filed in the database; no cut-off is given here.

For `C=CC(=O)Nc1cc(Nc2nccc(-c3cn(C)c4ccccc34)n2)c(OC)cc1N(C)CCN(C)C` [OSIMERTINIB], the inhibition entry in the data set listed under Mus musculus [1] and in the data set filed under Mus musculus [2] was “Active” in each case.
On to `C=CC(=O)Nc1cccc(Nc2nc(Nc3ccc(N4CCN(C)CC4)cc3)nc3ccc(F)cc23)c1`, for which the Activity was 0% in [3]; 14% in data set [5]; “Non-Toxic” in data set [7]; “Non-Toxic” in data set [10]; “Non-Toxic” with A-431 [11]; “Non-Toxic” with A-431 [17]. Besides, the Activity result in data set [18] is reported as “Non-Toxic”. For the same compound, the outcome (in the data set on NCI-H1975 [4]; in the data set with NCI-H1975 [8]; in data set [9]; in the data set with NCI-H1975 [15]) was Active. Besides, the inhibition result (in data set [6]; with Mus musculus [13]) was “Active” throughout. In addition, the “inhibition (INH)” value in [12], in [14] and in data set [20] was “Not Active” in each case. Besides, the inhibition entry in [16] is “inactive”. Also, in data set [19], the IC50 (as a rule, the point on the concentration scale where inhibition reaches its midpoint) turned out to be 518 nM. Besides, the exposure AUC(0-t) (in general, exposure summed from dosing to a finite time, without extrapolation to infinity) in [21] came out at 1040 ng·h/mL.
